In BindingDB's records for doi:10.1021/jm900431g (Boehringer Ingelheim Pharma, 2009):

These compounds were tested against Vascular endothelial growth factor receptor 2 (Homo sapiens, UniProt P35968) (assay: Inhibition of human VEGFR2 expressed in Sf9 cells).
Sequence of Vascular endothelial growth factor receptor 2 (P35968 whole entry): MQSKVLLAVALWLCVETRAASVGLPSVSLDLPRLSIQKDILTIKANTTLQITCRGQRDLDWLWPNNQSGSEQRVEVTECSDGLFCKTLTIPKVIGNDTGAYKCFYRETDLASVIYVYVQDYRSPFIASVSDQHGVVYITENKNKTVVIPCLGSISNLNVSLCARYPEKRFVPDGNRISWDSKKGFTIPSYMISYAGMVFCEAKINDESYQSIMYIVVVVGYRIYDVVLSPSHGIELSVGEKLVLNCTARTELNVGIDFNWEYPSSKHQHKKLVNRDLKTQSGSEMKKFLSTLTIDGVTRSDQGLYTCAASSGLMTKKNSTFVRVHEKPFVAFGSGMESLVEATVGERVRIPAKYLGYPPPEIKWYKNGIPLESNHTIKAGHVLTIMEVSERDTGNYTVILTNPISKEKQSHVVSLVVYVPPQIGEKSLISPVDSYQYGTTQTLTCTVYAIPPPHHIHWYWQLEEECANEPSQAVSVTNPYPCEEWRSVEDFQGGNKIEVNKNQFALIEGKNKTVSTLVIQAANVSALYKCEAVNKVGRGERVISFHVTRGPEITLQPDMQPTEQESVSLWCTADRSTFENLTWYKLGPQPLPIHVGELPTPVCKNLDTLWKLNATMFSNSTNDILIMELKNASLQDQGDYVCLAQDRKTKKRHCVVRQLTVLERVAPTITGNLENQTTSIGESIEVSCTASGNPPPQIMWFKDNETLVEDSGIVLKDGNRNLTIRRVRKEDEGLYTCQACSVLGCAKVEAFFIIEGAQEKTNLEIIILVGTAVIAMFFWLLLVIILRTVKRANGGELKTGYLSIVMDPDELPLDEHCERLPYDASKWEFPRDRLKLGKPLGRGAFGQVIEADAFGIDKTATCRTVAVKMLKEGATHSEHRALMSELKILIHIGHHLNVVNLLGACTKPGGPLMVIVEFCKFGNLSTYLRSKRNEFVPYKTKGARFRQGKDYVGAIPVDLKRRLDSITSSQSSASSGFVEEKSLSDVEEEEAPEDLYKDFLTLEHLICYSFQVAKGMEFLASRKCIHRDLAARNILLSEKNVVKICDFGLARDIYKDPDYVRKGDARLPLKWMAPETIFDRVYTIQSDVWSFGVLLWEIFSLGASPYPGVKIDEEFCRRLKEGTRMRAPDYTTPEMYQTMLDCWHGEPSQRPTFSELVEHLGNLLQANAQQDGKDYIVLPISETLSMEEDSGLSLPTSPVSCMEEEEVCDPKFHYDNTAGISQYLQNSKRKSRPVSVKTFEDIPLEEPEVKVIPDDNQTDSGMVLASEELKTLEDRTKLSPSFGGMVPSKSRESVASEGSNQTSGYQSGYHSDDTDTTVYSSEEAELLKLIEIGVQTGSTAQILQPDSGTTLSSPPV

`COC(=O)c1ccc2c(c1)NC(=O)C2C(=NC1CCN(C)CC1)c1ccccc1` (stereo not drawn) [(Z)-3-[(1-Methylpiperidin-4-ylamino)-phenyl-methylene]-2-oxo-2,3-dihydro-1H-indole-6-carboxylic Acid Methyl Ester] and `COC(=O)c1ccc2c(c1)NC(=O)C2C(=NC1CCC(NC(=O)CN(C)C)CC1)c1ccccc1` (stereo not drawn) [(Z)-methyl 3-((4-(2-(dimethylamino)acetamido)cyclohexylamino)(phenyl)methylene)-2-oxoindoline-6-carboxylate] cannot be ordered by IC50: greater than 10 µM for the first, greater than 10 µM for the second.

For `N#Cc1ccc2c(c1)NC(=O)C2C(=Nc1ccc(CN2CCCCC2)cc1)c1ccccc1` (stereo not drawn) [(Z)-6-Cyano-3-[phenyl-(4-piperidin-1-ylmethyl-phenylamino)-methylene]-indolin-2-one], the IC50 was 0.248 µM.
